From patent publication US11673897B2, “Compounds for the treatment of kinase-dependent disorders” (Exelixis, Inc., priority 2018, dated 2023)

Key:
Format in all cases: cell-based
Mer = Mer (Homo sapiens (Human), UniProt Q12866); test: Mer autophosphorylation ELISA in transient transfected 293A cells; conditions: cellular, MERTK-transfected 293A cells, phospho-Mer ELISA
Description: 293A cells (Thermo Fisher #R70507) were seeded at 1.5×10^6 cells/well onto 100 mm dish (Greiner #664169), in DMEM (Thermo Fisher #11995-040) containing 10% FBS (Thermo Fisher #26140-079), 1% MEM NEAA (Thermo Fisher #11140-050), 1% GlutaMax (Thermo Fisher #35050-061), and 1% Penicillin Streptomycin (Thermo Fisher #15140-122). 293A cells were incubated at 37° C., 5% CO2 for 24 h and then transfected with 6 μg MERTK DNA (Genecopoeia #EX-Z8208-M02) using TransIT LT1 transfection reagent (Mirus-Bio #MIR2305). After 24 h incubation, the transfected 293A cells were seeded at 1×10^5 cells/well onto 96-well plates (Corning #3904) in DMEM growth medium overnight. Test compounds were serially diluted to produce an 8-point dose curve in fresh serum-free medium to a final concentration of 0.3% DMSO (vehicle) and added to the cells and incubated for 1 h. Cells were then immediately lysed with 150 μL of cold 1× lysis buffer [20 mM Tris, 137 mM sodium chloride, 2 mM EDTA, 10% glycerol, 1% NP-40 alternative, 1 mM activated sodium orthovanadate, 1 mM PefaBloc SC (Sigma-Aldrich #11429868001), protease/phosphatase inhibitor tablet (Thermo Fisher #A32959)]. Lysates were clarified by centrifugation and 50 μL/well added into the human phospho-Mer DuoSet IC ELISA (R&D Systems #DYC2579-2). Assay was performed according to manufacturer's instructions and sample phospho-Mer concentrations were extrapolated using human phospho-Mer control (R&D Systems #841793) as a standard. Positive control wells (100% activity) contained DMSO-treated cell lysates. Negative control wells (0% activity) contained reference inhibitor-treated cell lysates. IC50 values were calculated by nonlinear regression analysis using a 4-parameter logistic curve fit in ActivityBase XE (IDBS).

KDR = KDR (Homo sapiens (Human), UniProt P35968); test: KDR autophosphorylation ELISA in HUVEC cells; conditions: cellular, VEGF165-stimulated, phospho-KDR ELISA
Description: Human umbilical vein endothelial cells or HUVEC (Lonza #C2519A) were seeded at 2×10^4 cells/well onto 96-well plates (Corning #3904), in EGM-2 growth medium (Lonza #CC-3162) containing 1% Penicillin Streptomycin (Thermo Fisher #15140-122). HUVEC cells were incubated at 37° C., 5% CO2 for 24 h and then starved for 24 h in serum-free EBM-2 basal medium (Lonza #CC-3156) containing 1% Penicillin Streptomycin. Test compounds were serially diluted to produce an 8-point dose curve in fresh serum-free medium to a final concentration of 0.3% DMSO (vehicle) and added to the cells and incubated for 1 h. Cells were then stimulated with 100 ng/mL recombinant human VEGF165 (R&D Systems #293-VE-500) for 5 min, washed with cold PBS, and immediately lysed with 130 μL of cold 1× lysis buffer [20 mM Tris, 137 mM sodium chloride, 2 mM EDTA, 10% glycerol, 1% NP-40 alternative, 1 mM activated sodium orthovanadate, 1 mM PefaBloc SC (Sigma-Aldrich #11429868001), protease/phosphatase inhibitor tablet (Thermo Fisher #A32959)]. Lysates were collected and 100 μL/well added into the human phospho-KDR DuoSet IC ELISA (R&D Systems #DYC1766-2). Assay was performed according to manufacturer's instructions and sample phospho-KDR concentrations were extrapolated using human phospho-KDR control (R&D Systems #841421) as a standard. Positive control wells (100% activity) contained VEGF165-stimulated, DMSO-treated cell lysates. Negative control wells (0% activity) contained non-stimulated cell lysates. IC50 values were calculated by nonlinear regression analysis using a 4-parameter logistic curve fit in ActivityBase XE (IDBS).

AXL = AXL (Homo sapiens (Human), UniProt P30530); test: AXL autophosphorylation ELISA in A-172 cells; conditions: cellular, Gas6-stimulated, phospho-AXL ELISA
Description: A-172 glioblastoma cells (ATCC #CRL-1620) were seeded at 2.5×10^5 cells/well onto 24-well plates (Greiner #662165), in […] (Thermo Fisher #11995-040) containing 10% FBS (Thermo Fisher #26140-079), […] (Thermo Fisher #11140-050), […] (Thermo Fisher #35050-061), and 1% Penicillin Streptomycin (Thermo Fisher #15140-122). A-172 cells were incubated at 37° C., […] for 24 hand then starved for 24 h in serum-free medium. Test compounds were serially diluted to produce an 8-point dose curve in fresh serum-free medium to a final concentration of 0.3% DMSO (vehicle) and added to the cells and incubated for 1 h. Cells were then stimulated with 1 μg/mL recombinant human Gas6 (R&D Systems #885-GSB-500) for 15 min, washed with cold PBS, and immediately lysed with 150 μL of cold 1× lysis buffer [20 mM Tris, 137 mM sodium chloride, 2 mM EDTA, 10% glycerol, 1% NP-40 alternative, 1 mM activated sodium orthovanadate, 1 mM PefaBloc SC (Sigma-Aldrich #11429868001), protease/phosphatase inhibitor tablet (Thermo Fisher #A32959)]. Lysates were collected and 100 μL/well added into the human phospho-AXL DuoSet IC ELISA (R&D Systems #DYC2228-2). Assay was performed according to manufacturer's instructions and sample phospho-AXL concentrations were extrapolated using human phospho-AXL control (R&D Systems #841645) as a standard. Positive control wells (100% activity) contained Gas6-stimulated, DMSO-treated cell lysates. Negative control wells (0% activity) contained Gas6-stimulated, reference inhibitor-treated cell lysates. IC50 values were calculated by nonlinear regression analysis using a 4-parameter logistic curve fit in ActivityBase XE (IDBS).

Met = Met (Homo sapiens (Human), UniProt P08581); test: Met autophosphorylation ELISA in PC-3 cells; conditions: cellular, HGF-stimulated, phospho-Met ELISA, read-out: c-Met IC50
Description: PC-3 prostate cancer cells (ATCC #CRL-1435) were seeded at 4×10^4 cells/well onto 24-well plates (Greiner #662165), in DMEM (Thermo Fisher #11995-040) containing 10% FBS (Thermo Fisher #26140-079), 1% MEM NEAA (Thermo Fisher #11140-050), 1% GlutaMax (Thermo Fisher #35050-061), and 1% Penicillin Streptomycin (Thermo Fisher #15140-122). PC-3 cells were incubated at 37° C., 5% CO2 for 24 h and then starved for 3 h in serum-free medium. Test compounds were serially diluted to produce an 8-point dose curve in fresh serum-free medium to a final concentration of 0.3% DMSO (vehicle) and added to the cells and incubated for 1 h. Cells were then stimulated with 100 ng/mL recombinant human HGF (R&D Systems #294-HG-250) for 10 min, washed with cold PBS, and immediately lysed with 130 μL of cold 1× lysis buffer [20 mM Tris, 137 mM sodium chloride, 2 mM EDTA, 10% glycerol, 1% NP-40 alternative, 1 mM activated sodium orthovanadate, 1 mM PefaBloc SC (Sigma-Aldrich #11429868001), and protease/phosphatase inhibitor tablet (Thermo Fisher #A32959)]. Lysates were clarified by centrifugation and 100 μL/well added into the PathScan phospho-Met (panTyr) Sandwich ELISA (Cell Signaling Technology #7333). Assay was performed according to manufacturer's instructions. Positive control wells (100% activity) contained HGF-stimulated, DMSO-treated cell lysates. Negative control wells (0% activity) contained HGF-stimulated, reference inhibitor-treated cell lysates. IC50 values were calculated by nonlinear regression analysis using a 4-parameter logistic curve fit in ActivityBase XE (IDBS).

Chain of Mer (Q12866 21-999): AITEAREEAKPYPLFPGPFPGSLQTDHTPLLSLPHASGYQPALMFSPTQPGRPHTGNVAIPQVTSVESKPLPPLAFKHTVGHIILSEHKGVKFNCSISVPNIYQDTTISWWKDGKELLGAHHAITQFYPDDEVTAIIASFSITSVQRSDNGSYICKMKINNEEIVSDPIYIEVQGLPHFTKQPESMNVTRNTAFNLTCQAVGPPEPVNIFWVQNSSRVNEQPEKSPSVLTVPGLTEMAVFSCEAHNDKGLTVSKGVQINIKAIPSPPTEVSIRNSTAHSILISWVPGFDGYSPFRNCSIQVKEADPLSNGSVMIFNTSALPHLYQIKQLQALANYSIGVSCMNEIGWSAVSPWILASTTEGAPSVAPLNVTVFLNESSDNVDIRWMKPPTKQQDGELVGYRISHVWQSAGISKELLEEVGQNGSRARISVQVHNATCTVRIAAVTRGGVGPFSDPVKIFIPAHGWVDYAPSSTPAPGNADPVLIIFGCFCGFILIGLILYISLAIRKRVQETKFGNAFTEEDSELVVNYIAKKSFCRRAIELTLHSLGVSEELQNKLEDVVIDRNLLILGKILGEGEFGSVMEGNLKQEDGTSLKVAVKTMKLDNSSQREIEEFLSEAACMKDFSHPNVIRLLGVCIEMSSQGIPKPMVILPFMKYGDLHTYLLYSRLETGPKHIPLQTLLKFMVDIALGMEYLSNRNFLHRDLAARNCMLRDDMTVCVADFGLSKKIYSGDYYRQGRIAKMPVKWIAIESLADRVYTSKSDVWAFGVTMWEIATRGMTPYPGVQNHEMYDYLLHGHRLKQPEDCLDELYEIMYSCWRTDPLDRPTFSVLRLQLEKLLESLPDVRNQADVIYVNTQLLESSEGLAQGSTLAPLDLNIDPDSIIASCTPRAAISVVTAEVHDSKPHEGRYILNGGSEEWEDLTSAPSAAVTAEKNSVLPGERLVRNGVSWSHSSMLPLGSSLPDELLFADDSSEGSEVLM
Chain of AXL (P30530 26-894): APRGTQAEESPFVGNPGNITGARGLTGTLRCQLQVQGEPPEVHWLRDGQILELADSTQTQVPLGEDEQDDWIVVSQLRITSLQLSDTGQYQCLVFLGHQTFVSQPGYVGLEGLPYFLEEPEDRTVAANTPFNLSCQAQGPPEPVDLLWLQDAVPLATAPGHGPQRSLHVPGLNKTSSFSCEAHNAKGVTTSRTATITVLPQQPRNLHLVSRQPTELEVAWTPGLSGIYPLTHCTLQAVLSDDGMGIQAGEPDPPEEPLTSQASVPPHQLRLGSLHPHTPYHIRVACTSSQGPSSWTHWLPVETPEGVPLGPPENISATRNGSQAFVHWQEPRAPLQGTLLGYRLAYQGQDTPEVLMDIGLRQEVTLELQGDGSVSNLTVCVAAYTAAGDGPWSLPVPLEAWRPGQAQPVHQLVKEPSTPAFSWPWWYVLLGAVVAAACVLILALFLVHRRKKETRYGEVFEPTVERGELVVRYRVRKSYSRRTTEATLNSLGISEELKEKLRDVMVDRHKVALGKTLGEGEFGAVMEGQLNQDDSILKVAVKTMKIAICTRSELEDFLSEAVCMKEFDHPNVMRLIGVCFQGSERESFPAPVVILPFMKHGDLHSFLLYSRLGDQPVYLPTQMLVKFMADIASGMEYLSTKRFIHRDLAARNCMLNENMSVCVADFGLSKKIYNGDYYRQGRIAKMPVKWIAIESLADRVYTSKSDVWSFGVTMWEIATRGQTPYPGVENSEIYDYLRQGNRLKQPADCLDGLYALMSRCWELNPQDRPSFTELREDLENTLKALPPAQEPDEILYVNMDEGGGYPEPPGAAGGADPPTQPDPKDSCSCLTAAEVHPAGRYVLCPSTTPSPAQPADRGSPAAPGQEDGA
Chain of Met (P08581 25-1390): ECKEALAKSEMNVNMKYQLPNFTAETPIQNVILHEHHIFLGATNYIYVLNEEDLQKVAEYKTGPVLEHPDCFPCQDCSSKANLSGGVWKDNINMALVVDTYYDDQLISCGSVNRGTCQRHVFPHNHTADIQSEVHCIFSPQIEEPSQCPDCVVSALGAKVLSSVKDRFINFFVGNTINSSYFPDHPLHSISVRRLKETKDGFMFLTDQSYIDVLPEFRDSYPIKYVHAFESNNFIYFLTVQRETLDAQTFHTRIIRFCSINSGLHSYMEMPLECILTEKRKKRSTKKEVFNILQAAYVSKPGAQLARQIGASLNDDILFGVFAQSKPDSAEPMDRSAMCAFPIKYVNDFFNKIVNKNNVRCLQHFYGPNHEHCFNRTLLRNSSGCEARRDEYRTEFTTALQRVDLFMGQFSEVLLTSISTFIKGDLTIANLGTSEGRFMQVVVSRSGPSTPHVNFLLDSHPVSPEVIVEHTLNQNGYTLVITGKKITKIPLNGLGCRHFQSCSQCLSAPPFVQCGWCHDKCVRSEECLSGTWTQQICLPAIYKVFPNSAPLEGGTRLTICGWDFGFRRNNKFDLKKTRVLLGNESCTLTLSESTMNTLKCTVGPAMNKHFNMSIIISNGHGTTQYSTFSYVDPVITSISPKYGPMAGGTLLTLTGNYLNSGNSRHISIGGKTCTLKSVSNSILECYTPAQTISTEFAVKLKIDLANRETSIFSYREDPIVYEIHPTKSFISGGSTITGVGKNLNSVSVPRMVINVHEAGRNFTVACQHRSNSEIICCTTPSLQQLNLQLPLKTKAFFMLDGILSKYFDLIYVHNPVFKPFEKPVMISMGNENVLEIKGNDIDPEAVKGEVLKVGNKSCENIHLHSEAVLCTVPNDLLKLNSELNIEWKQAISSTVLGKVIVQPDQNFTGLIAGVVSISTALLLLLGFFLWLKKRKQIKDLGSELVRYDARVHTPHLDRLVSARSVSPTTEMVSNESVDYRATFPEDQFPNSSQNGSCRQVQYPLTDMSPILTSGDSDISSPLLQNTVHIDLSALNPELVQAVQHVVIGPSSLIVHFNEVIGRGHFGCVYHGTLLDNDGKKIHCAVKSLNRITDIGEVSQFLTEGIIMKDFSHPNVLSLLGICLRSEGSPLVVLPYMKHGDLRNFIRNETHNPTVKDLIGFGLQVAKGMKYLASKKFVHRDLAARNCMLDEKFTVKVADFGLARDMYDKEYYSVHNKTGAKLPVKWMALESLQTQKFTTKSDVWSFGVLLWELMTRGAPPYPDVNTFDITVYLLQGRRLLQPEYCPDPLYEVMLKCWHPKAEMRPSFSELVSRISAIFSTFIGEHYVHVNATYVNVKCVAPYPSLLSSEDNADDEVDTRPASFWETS
Chain of KDR (P35968 20-1356): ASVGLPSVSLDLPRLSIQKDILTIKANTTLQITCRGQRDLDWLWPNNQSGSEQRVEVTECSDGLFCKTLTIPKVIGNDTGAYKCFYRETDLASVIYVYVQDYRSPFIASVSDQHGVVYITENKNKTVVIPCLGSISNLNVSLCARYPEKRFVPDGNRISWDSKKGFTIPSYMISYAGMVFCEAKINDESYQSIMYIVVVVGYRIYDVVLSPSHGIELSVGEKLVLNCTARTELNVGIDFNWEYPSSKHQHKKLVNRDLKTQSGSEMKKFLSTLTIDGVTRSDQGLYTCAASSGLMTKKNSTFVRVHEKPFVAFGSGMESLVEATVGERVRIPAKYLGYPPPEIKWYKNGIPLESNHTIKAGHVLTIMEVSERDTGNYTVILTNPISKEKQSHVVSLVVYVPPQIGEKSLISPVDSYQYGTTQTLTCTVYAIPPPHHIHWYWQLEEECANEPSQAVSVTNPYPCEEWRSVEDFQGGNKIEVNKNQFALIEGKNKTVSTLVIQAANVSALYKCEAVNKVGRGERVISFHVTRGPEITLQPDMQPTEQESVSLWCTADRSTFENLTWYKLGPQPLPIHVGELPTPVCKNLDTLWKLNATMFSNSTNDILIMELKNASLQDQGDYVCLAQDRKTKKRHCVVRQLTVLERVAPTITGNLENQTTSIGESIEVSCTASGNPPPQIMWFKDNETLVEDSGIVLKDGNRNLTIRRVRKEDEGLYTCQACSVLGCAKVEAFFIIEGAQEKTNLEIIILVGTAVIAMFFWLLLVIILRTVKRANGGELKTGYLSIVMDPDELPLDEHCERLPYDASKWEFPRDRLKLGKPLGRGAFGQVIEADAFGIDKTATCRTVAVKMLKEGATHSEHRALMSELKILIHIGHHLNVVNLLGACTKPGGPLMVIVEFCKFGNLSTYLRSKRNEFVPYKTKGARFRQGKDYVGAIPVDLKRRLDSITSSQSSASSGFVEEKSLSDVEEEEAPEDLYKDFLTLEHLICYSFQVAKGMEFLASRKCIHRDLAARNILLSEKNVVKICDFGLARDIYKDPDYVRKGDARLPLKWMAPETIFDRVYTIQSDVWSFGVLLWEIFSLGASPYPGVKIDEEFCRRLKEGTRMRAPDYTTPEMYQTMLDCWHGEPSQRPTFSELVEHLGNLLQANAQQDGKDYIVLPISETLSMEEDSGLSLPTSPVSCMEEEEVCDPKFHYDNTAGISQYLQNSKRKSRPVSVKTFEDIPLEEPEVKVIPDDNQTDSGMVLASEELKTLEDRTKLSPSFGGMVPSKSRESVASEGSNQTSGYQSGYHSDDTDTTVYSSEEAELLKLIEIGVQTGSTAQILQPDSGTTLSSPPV

Row | Structure (SMILES) | IC50 (Mer) [nM] | IC50 (KDR) [nM] | IC50 (AXL) [nM] | IC50 (Met) [nM]
1 | CCNC(=O)c1cc2c(Oc3ncc(NC(=O)C4(C(=O)Nc5ccc(F)cc5)CC4)cc3F)ccnc2cc1OC [Compound 23, 1-N′-[6-[6-(Ethylcarbamoyl)-7-methoxyquinolin-4-yl]oxy-5-fluoropyridin-3-yl]-1-N-(4-fluorophenyl)cyclopropane-1,1-dicarboxamide] | 10 to 100 | > 300 | 10 to 100 | 10 to 100
2 | CNC(=O)c1cc2c(Oc3ncc(NC(=O)C4(C(=O)Nc5ccc(F)cc5)CC4)cc3Cl)ccnc2cc1OCCO [Compound 37, 1-N′-[5-Chloro-6-[7-(2-hydroxyethoxy)-6-(methylcarbamoyl)quinolin-4-yl]oxypyridin-3-yl]-1-N-(4-fluorophenyl)cyclopropane-1,1-dicarboxamide] | 100 to 300 | > 300 | 10 to 100 | 10 to 100
3 | NC(=O)c1cc2c(Oc3ncc(NC(=O)C4(C(=O)Nc5ccc(F)cc5)CC4)cc3Cl)ccnc2cc1OCCO [Compound 38, 1-N′-[6-[6-Carbamoyl-7-(2-hydroxyethoxy)quinolin-4-yl]oxy-5-chloropyridin-3-yl]-1-N-(4-fluorophenyl)cyclopropane-1,1-dicarboxamide] | 10 to 100 | > 300 | 10 to 100 | 10 to 100
4 | NC(=O)c1cc2c(Oc3ncc(NC(=O)C4(C(=O)Nc5ccc(F)cc5)CC4)cc3F)ccnc2cc1OCCO [Compound 39, 1-N′-[6-[6-Carbamoyl-7-(2-hydroxyethoxy)quinolin-4-yl]oxy-5-fluoropyridin-3-yl]-1-N-(4-fluorophenyl)cyclopropane-1,1-dicarboxamide] | 100 to 300 | > 300 | 10 to 100 | 10 to 100
5 | CNC(=O)c1cc2c(Oc3ncc(NC(=O)C4(C(=O)Nc5ccc(F)cc5)CC4)cc3Cl)ccnc2cc1OCC(C)O (centres unmarked) [Compound 50, 1-N′-[5-Chloro-6-[7-(2-hydroxypropoxy)-6-(methylcarbamoyl)-quinolin-4-yl]oxypyridin-3-yl]-1-N-(4-fluorophenyl)cyclopropane-1,1-dicarboxamide] | 10 to 100 | > 300 | 10 to 100 | 10 to 100
6 | CC(O)COc1cc2nccc(Oc3ncc(NC(=O)C4(C(=O)Nc5ccc(F)cc5)CC4)cc3Cl)c2cc1C(N)=O (centres unmarked) [Compound 51, 1-N′-[6-[6-Carbamoyl-7-(2-hydroxypropoxy)quinolin-4-yl]oxy-5-chloropyridin-3-yl]-1-N-(4-fluorophenyl)cyclopropane-1,1-dicarboxamide] | 10 to 100 | > 300 | 10 to 100 | 10 to 100
7 | COc1cc2nccc(Oc3ncc(NC(=O)C4(C(=O)Nc5ccc(F)cc5)CC4)cc3Cl)c2cc1-c1ncco1 [Compound 64, 1-N′-[5-Chloro-6-[7-methoxy-6-(1,3-oxazol-2-yl)quinolin-4-yl]oxypyridin-3-yl]-1-N-(4-fluorophenyl)cyclopropane-1,1-dicarboxamide] | 10 to 100 | > 300 | ≤ 10 | 10 to 100
8 | COc1cc2nccc(Oc3ncc(NC(=O)C4(C(=O)Nc5ccc(F)cc5)CC4)cc3F)c2cc1-c1nnco1 [Compound 67, 1-N′-[5-Fluoro-6-[7-methoxy-6-(1,3,4-oxadiazol-2-yl)quinolin-4-yl]oxypyridin-3-yl]-1-N-(4-fluorophenyl)cyclopropane-1,1-dicarboxamide] | 10 to 100 | > 300 | 10 to 100 | 10 to 100
9 | COc1cc2nccc(Oc3ncc(NC(=O)C4(C(=O)Nc5ccc(F)cc5)CC4)cc3Cl)c2cc1-c1nnco1 [Compound 68, 1-N′-[5-Chloro-6-[7-methoxy-6-(1,3,4-oxadiazol-2-yl)quinolin-4-yl]oxypyridin-3-yl]-1-N-(4-fluorophenyl)cyclopropane-1,1-dicarboxamide] | 10 to 100 | > 300 | 10 to 100 | 10 to 100
10 | COc1cc2nccc(Oc3ncc(NC(=O)C4(C(=O)Nc5ccc(F)cc5)CC4)cc3Cl)c2cc1-c1ncc[nH]1 [Compound 71, 1-N′-[5-Chloro-6-[6-(1H-imidazol-2-yl)-7-methoxyquinolin-4-yl]oxypyridin-3-yl]-1-N-(4-fluorophenyl)cyclopropane-1,1-dicarboxamide] | 10 to 100 | > 300 | 10 to 100 | 10 to 100
11 | COc1cc2nccc(Oc3ncc(NC(=O)C4(C(=O)Nc5ccc(F)cc5)CC4)cc3F)c2cc1-c1ncc[nH]1 [Compound 72, 1-N′-[5-Fluoro-6-[6-(1H-imidazol-2-yl)-7-methoxyquinolin-4-yl]oxypyridin-3-yl]-1-N-(4-fluorophenyl)cyclopropane-1,1-dicarboxamide] | 10 to 100 | > 300 | ≤ 10 | 10 to 100
